Here are results for three substances from patent US20070004633A1, “Use of peptidic conjugates for preparing compositions for alopecia preventive and curative treatment” (priority 2003, published 2007).

This assay concerns anagen-phase hair follicles of mouse vibrissae. Description: Growth of mouse vibrissae in vitro (anagen-phase hair follicle culture, technique of Philpott). It is filed as cell-based. The arrangement: unit not given here. The note with it: peptide 10^−7 M, cultured mouse vibrissae follicles. As to the method: Effects of the Various Peptides on the Growth of Mouse Vibrissae In Vitro
In order to show the stimulatory effect of the peptides on hair growth, anagen-phase hair follicles of mouse vibrissae are cultured according to the technique described by Philpott (Philpott et al. 1994, Human Hair growth in vitro: a model for the study of hair biology. Journal of dermatological science 7; S55-S72). The growth of the hair follicle shaft was followed for several days (D0 to D4). The results are reported in the table below for the peptides R, S and V described above.

Lipoyl = N-lipoyl

In the case of “Ac-Lys-Gly-His-Lys-NH2 (Ac-KGHK-NH2) [Peptide V]”, the “growth of the hair follicle shaft” value reads like this: (D0) 0.00; (D1) 0.86; (D2) 1.34; (D3) 1.65; (D4) 1.65.

Regarding H-Gly-His-Lys-OH [Peptide R], the “growth of the hair follicle shaft” value amounted to 0.00 (D0); 0.8 (D1); 1.27 (D2); 1.38 (D3); 1.38 (D4).

For “Lipoyl-Lys-Gly-His-Lys-NH2 (Lipoyl-KGHK-NH2) [Peptide S]”, the “growth of the hair follicle shaft” value is, setting by setting: (D0) 0.00; (D1) 0.77; (D2) 1.47; (D3) 1.72; (D4) 1.86.
